# Source: patent publication US20050209446A1, “Novel 15-membered cyclic azalide, novel 16-membered cyclic diazalide derivative, and process for producing these” (Meiji Seika Kaisha Ltd., priority 2002, published 2005)
# Columns and labels:
# [1] = system: Haemophilus influenzae 9334; assay: Antibacterial activity test in vitro (agar dilution MIC); format: cell-based; conditions: blood agar medium, 37° C., about 20 hours
# Protocol: (§1) Antibacterial activities in vitro of the compounds of Examples 19 and 25 were measured as follows by referring to the standard method of Japanese Society of Chemotherapy (Chemotherapy, Vol. 29, p. 76-79, 1981). Antibacterial activities of miokamycin (MOM) was measured in the same manner for comparison.
# (§2) For each of the solutions of the test drugs, which were dissolved in methanol so as to be 6,400 μg/ml, serial two-fold diluents with methanol were prepared. Each 200 μl of the test drug solutions prepared was placed in a laboratory dish, and the agar medium for sensitivity measurement, which was added with 5% equine sterile defibrinated blood, 15 μg/ml, β-Nicotinamide-adenine dinucleotide and 2.5 μg/ml hemin, was dispensed in 10 ml aliquots into the dish and then mixed with the solution for dilution to prepare the agar plate containing the test drug. A given amount of the liquid medium for the sensitivity measurement, which was prepared so as to contain a given amount of test bacterium was inoculated on the agar plate containing the test drug by a microplanter (Sakuma Seisakusyo, Co. Ltd.), and after the inoculation, the plate was incubated at 37° C. for about 20 hours. After the incubation, the existence of growth of the test bacterium was visually observed, and a minimum concentration at which no growth was observed was defined as a minimum inhibitory concentration of a test drug (MIC) against each of test bacteria.
# [2] = system: Micrococcus luteus ATCC9341; assay: as above; format: cell-based; conditions: blood agar medium, 37° C., about 20 hours
# Protocol: as §1, §2
# [3] = system: Moraxella catarrhalis W-0506; assay: as above; format: cell-based; conditions: 37° C., about 20 hours; for Minimum inhibitory concentration (MIC): blood agar medium
# Protocol: as §1, §2
# [4] = system: Staphylococcus aureus Smith; assay: as above; format: cell-based; conditions: blood agar medium, 37° C., about 20 hours
# Protocol: as §1, §2
# [5] = system: Streptococcus pneumoniae DP1 TypeI; assay: as above; format: cell-based; conditions: blood agar medium, 37° C., about 20 hours
# Protocol: as §1, §2
# [6] = system: Streptococcus pneumoniae IP692; assay: as above; format: cell-based; conditions: blood agar medium, 37° C., about 20 hours
# Protocol: as §1, §2
# [7] = format: in vitro ADME, mouse
# Protocol: Antibacterial activities of the compound of Example 19 after treatment with mouse liver homogenate were examined as follows. Antibacterial activities of MOM were examined in the same manner for comparison. The liver was collected from a mouse, and added with a phosphate buffer to prepare 5% homogenate. A 50 μl of the test drug solution, dissolved in methanol so as to be 150 μg/ml, was added to 1.45 ml of the mouse liver homogenate, and the mixture was allowed to react at 37° C. Each portion of the reaction mixture was collected at the beginning of the reaction, and after 10, 20 and 40 minutes, and added with a given volume of an acetonitrile solution to prepare each bioassay sample for the measurement of a concentration of the test drug. […] After the incubation, a diameter of growth inhibitory circle of Micrococcus luteus ATCC9341 observed around the paper disc was measured with a digital slide calipers. […] On the basis of a calibration curve which was drawn from the concentrations and the diameters of growth inhibitory circles of the standard solutions, residual activities of the samples at the above sampling times were calculated, and compared with antibacterial activities at the beginning of the reaction.
# [8] = system: test bacteria; assay: Antibacterial activity test in vitro, overall statement; format: cell-based; conditions: summary of Table 1
# Protocol: as §1
# as §2, with “After the incubation, the existence of growth of the test bacterium was visually observed, and a minimum concentration at which no growth was observed was defined as a minimum inhibitory concentration of a test drug (MIC) against each of test bacteria.” left out
# [9] = read-out: Minimum inhibitory concentration (MIC)
"MIC [1, 9] [µg/mL]","MIC [2, 9] [µg/mL]","MIC ([3]; W0506, blood agar medium, read-out: Minimum inhibitory concentration (MIC)) [µg/mL]","MIC [4, 9] [µg/mL]","MIC ([5]; DP1TYPEI, read-out: Minimum inhibitory concentration (MIC)) [µg/mL]","MIC [6, 9] [µg/mL]",SMILES,Minimum inhibitory concentration (MIC) [1] [µg/mL],Minimum inhibitory concentration (MIC) [2] [µg/mL],Minimum inhibitory concentration (MIC) [3] [µg/mL],Minimum inhibitory concentration (MIC) [4] [µg/mL],Minimum inhibitory concentration (MIC) [5] [µg/mL],Minimum inhibitory concentration (MIC) [6] [µg/mL],"residual antibacterial activities after treatment with mouse liver homogenate, compared with the start of the reaction [7]",antibacterial activities compared with MOM [8]
,,,,,,CCC(=O)O[C@@H]1CC(=O)O[C@H](C)CCN(CCCCc2ccccc2)C[C@H](O)[C@H](C)C[C@H](CC=O)[C@H](O[C@@H]2O[C@H](C)[C@@H](O[C@H]3C[C@@](C)(OC(C)=O)[C@@H](OC(=O)CC)[C@H](C)O3)[C@H](N(C)C)[C@H]2O)[C@H]1OC [Example 19],2,0.03,0.25,0.5,0.06,0.13,no decrease in antibacterial activities,higher antibacterial activities than MOM
,,,,,,"CCC(=O)O[C@@H]1CC(=O)O[C@H](C)CCN(CCCc2ccnc3ccccc23)C[C@H](O)[C@H](C)C[C@H](CC=O)[C@H](O[C@@H]2O[C@H](C)[C@@H](O[C@H]3C[C@@](C)(OC(C)=O)[C@@H](OC(=O)CC)[C@H](C)O3)[C@H](N(C)C)[C@H]2O)[C@H]1OC [Example 25, (−)-(3R,4S,5S,6R,8R,9R,14R)-5-[4-O-(3-O-acetyl-2,6-dideoxy-3-C-methyl-4-O-propionyl-α-L-ribo-hexopyranosyl)-3,6-dideoxy-3-dimethylamino-8-D-glucopyranosyl]-6-formylmethyl-9-hydroxy-4-methoxy-8-methyl-3-propionyloxy-11-(3-(quinolin-4-yl)propyl)-11-aza-pentadecan-14-olide]",1,0.03,0.25,0.5,0.06,0.06,,higher antibacterial activities than MOM
4,0.13,1,1,0.25,0.25,"CCC(=O)O[C@@H]1CC(=O)O[C@H](C)C/C=C/C=C/[C@H](OC(C)=O)[C@H](C)C[C@H](CC=O)[C@H](O[C@@H]2O[C@H](C)[C@@H](O[C@H]3C[C@@](C)(OC(C)=O)[C@@H](OC(=O)CC)[C@H](C)O3)[C@H](N(C)C)[C@H]2O)[C@H]1OC [MOM, miokamycin, reference compound]",,,,,,,apparent decreases in antibacterial activities,
